# Experiments:
# [1] = target: T1, BK channels heterologously expressed in Xenopus laevis oocytes (Homo sapiens, UniProt Q12791); test: BK channel opening activity, two-electrode voltage clamp, left-shift of the BK activation curve; format: cell-based; details: 0.01-31.6 μM compound, sigmoidal logistic fit; for EC50: ΔV at control conductance level of +100 mV, read-out: EC50 for the left-shift of the BK activation curve (ΔV vs. concentration)
# T1 construct: expressed in transfected cells; host or cells: Xenopus laevis oocytes
# Experimental: In this example the BK channel opening activity of Compound 2 (FIGS. 1A and 1B), Compound 1 (FIGS. 2A and 2B) and Compound 9 (FIGS. 3A and 3B) is determined using BK channels heterologously expressed in Xenopus laevis oocytes.
# The electrical current through the BK channel is measured using conventional two-electrode voltage clamp. BK currents are activated by repeating ramp protocols. In brief, the membrane potential is continuously changed from −120 mV to +120 mV within 2 s. The threshold for BK activation is approximately +30 mV under control conditions. Compounds are applies for 100 s during which the ramp protocol is repeated 10 times with 10 s intervals. In between the ramp protocols the membrane potential is clamped at −80 mV. The first three compound applications are control blanks where the current level is allowed to stabilize. In the subsequent 8 applications increasing concentrations (0.01-31.6 μM) of compound is applied and a marked increase in the current level at depolarizing potentials is observed.
# In order to evaluate the ability of the compounds to shift the BK activation curve towards lower membrane potentials, the BK current was transformed into conductance by using Ohm's law g=I/(Ememb−Erev), where g is the conductance, I is the current, Ememb is the membrane potential and Erev is the reversal potential. The extracellular solution for these experiments contains 2.5 mM K^+and the intracellular K^+concentration of an oocyte is estimated to be 100 mM. Under those conditions, Nernst equation predicts a reversal potential of Erev=−93.2 mV. The control conductance level at a membrane potential of +100 mV was calculated, and the compound effect was evaluated as the potential difference, ΔV, to the membrane potential at which the same conductance level was obtained in the presence of compound.
# The concentration response curve for this potential difference was fitted to the sigmoidal logistic equation: ΔV=ΔVmax/(1+(EC50/[compound])^n), where ΔVmax represents the maximal left shift of the BK activation curve, EC50 is the concentration causing a half maximal response, and n is the slope coefficient.
# T1 sequence (Q12791 whole entry): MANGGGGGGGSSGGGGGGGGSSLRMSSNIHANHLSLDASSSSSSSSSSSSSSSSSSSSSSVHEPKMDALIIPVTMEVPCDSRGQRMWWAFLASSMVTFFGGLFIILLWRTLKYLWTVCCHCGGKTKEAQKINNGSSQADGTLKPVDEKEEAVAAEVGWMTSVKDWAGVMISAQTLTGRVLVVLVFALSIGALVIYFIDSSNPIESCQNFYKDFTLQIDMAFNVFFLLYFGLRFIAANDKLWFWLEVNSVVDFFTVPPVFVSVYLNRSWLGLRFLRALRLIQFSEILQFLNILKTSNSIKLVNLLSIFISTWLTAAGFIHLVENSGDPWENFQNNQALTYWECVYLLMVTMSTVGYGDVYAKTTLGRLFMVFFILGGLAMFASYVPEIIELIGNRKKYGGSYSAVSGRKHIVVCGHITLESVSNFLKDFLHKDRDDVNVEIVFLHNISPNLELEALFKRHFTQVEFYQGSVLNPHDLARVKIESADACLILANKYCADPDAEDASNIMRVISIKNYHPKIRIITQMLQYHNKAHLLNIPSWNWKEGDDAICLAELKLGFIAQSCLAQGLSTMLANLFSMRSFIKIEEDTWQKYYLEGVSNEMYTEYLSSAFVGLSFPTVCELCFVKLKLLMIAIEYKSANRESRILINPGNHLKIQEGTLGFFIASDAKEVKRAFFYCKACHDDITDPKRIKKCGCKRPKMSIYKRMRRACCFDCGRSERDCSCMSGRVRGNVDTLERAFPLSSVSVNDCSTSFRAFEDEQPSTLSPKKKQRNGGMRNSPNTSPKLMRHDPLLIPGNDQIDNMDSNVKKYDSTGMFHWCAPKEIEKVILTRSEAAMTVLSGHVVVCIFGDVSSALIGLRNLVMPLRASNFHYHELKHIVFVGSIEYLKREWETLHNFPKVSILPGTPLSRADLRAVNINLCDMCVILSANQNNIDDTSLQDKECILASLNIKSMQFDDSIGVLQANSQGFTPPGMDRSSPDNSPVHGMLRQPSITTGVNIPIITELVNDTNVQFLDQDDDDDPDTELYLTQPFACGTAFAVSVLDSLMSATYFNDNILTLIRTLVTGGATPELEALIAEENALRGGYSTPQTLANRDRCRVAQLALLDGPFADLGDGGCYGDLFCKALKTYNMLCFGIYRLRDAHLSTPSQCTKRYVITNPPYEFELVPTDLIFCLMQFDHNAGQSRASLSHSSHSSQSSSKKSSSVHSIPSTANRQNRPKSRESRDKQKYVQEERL
Compound,maximal left-shift of the BK activation curve (ΔVmax) [1] [mV],EC50 [1] [µM],melting point [°C]
"Cc1nc(-c2ccc(C(F)(F)F)cc2)sc1C(=O)Nc1cc(Cl)ccc1-c1nnn[nH]1 [Compound 9, 4-Methyl-2-(4-trifluoromethyl-phenyl)-thiazole-5-carboxylic acid [5-chloro-2-(1H-tetrazol-5-yl)-phenyl]-amide]",−99,0.97,325 to 337.2
"O=C(Nc1cc(Cl)ccc1-c1nnn[nH]1)c1cc(-c2ccc(Cl)cc2)oc1C(F)(F)F [Compound 1, 5-(4-Chloro-phenyl)-2-trifluoromethyl-furan-3-carboxylic acid [5-chloro-2-(1H-tetrazol-5-yl)-phenyl]-amide]",−88,4.4,
"O=C(O)c1cc(F)c(F)cc1NC(=O)c1cc(-c2ccc(Cl)cc2)oc1C(F)(F)F [Compound 13, 2-{[5-(4-Chloro-phenyl)-2-trifluoromethyl-furan-3-carbonyl]-amino}-4,5-difluoro-benzoic acid]",,,337.2 to 340.2
"Cc1oc(-c2ccc(Cl)cc2)cc1C(=O)Nc1cc(Cl)ccc1-c1nnn[nH]1 [Compound 12, 5-(4-Chloro-phenyl)-2-methyl-furan-3-carboxylic acid [5-chloro-2-(1H-tetrazol-5-yl)-phenyl]-amide]",,,246.7 to 255.4
"O=C(Nc1cc(Cl)ccc1OCc1nnn[nH]1)c1cc(-c2ccc(Cl)cc2)oc1C(F)(F)F [Compound 7, 5-(4-Chloro-phenyl)-2-trifluoromethyl-furan-3-carboxylic acid [5-chloro-2-(1H-tetrazol-5-ylmethoxy)-phenyl]-amide]",,,226.9 to 236.1
"O=C(Nc1cc(Cl)ccc1-c1nnn[nH]1)c1cnn(-c2ccc(Cl)cc2)c1C(F)(F)F [Compound 2, 1-(4-Chloro-phenyl)-5-trifluoromethyl-1H-pyrazole-4-carboxylic acid [5-chloro-2-(1H-tetrazol-5-yl)-phenyl]-amide]",−94,2.4,176.3 to 180.4
"Cc1oc(-c2ccc(Cl)cc2)cc1C(=O)Nc1cc(Cl)ccc1-c1noc(=O)[nH]1 [Compound 20, 5-(4-Chloro-phenyl)-2-methyl-furan-3-carboxylic acid [5-chloro-2-(5-oxo-4,5-dihydro-[1,2,4]oxadiazol-3-yl)-phenyl]-amide]",,,248.1 to 250.9
"CS(=O)(=O)NC(=O)c1ccc(Cl)cc1NC(=O)c1cc(-c2ccc(Cl)cc2)oc1C(F)(F)F [Compound 5, 5-(4-Chloro-phenyl)-2-trifluoromethyl-furan-3-carboxylic acid (5-chloro-2-methanesulfonylaminocarbonyl-phenyl)-amide]",,,259 to 262
